Reference: patent US5137892A, “Quinoline, naphthyridine and pyridobenzoxazine derivatives” (Abbott Laboratories, priority 1990, dated 1992)
Values after ≈ are worked out from the molar mass of the structure shown.

Experiments:
Assay in all cases: In Vitro Antibacterial Activity, agar dilution MIC
Format in all cases: cell-based
[1] = test system: Enterobacter aerogenes ATCC 13048; details: E. aerogenes ATCC 13048; BHI agar dilution, 20-24 hours; unit assumed
Procedure: (§1) The activity of the compounds of the present invention was tested against a wide variety of bacteria using standard assay procedures. Minimum inhibitory concentrations (MICs) were determined by the agar dilution method, described below, using Brain Heart Infusion agar.
(§2) Twelve petri dishes were prepared, each containing successive aqueous 2-fold dilutions of the test compounds mixed with 10 mL of sterilized Brain Heart Infusion (BHI) agar. Each plate was inoculated with 100-fold (or 10-fold, for slow-growing strains such as Micrococcus and Streptococcus) dilutions of up to 32 different microorganisms using a Steers replicator block calibrated to deliver approximately 10^4 colony forming units (CFUs). The inoculated plates were incubated at about 35°-37° C. for approximately 20-24 hours. In addition, a control plate, using BHI agar containing no test compound, was prepared and incubated at the beginning and at the end of each test. Ciprofloxacin was used as the reference antibiotic.
(§3) The MIC was defined as the lowest concentration of test compound yielding no growth (a slight haze or sparsely isolated colonies at the inoculum spot as compared to the growth control contaning no test compound.

Escherichia coli JUHL = details: E. coli JUHL; BHI agar dilution, 20-24 hours; unit assumed
Procedure: as §1, §2, §3

Escherichia coli KNK 437 = details: E. coli KNK 437; BHI agar dilution, 20-24 hours; unit assumed
Procedure: as §1, §2, §3

[2] = test system: Micrococcus luteus ATCC 9341; details: M. luteus ATCC 9341; BHI agar dilution, 20-24 hours; unit assumed
Procedure: as §1, §2, §3

[3] = test system: Pseudomonas aeruginosa BMH10; details: P. aeruginosa BMH10; BHI agar dilution, 20-24 hours; unit assumed
Procedure: as §1, §2, §3

Pseudomonas cepacia 2961 = details: P. cepacia 2961; BHI agar dilution, 20-24 hours; unit assumed
Procedure: as §1, §2, §3

[4] = test system: Staphylococcus epidermidis 3519; details: S. epidermidis 3519; BHI agar dilution, 20-24 hours; unit assumed
Procedure: as §1, §2, §3

[5] = test system: Streptococcus pyogenes 2548 INDUC; details: S. pyogenes 2548 INDUC; BHI agar dilution, 20-24 hours; unit assumed
Procedure: as §1, §2, §3

[6] = test system: Streptococcus pyogenes EES61; details: S. pyogenes EES61; BHI agar dilution, 20-24 hours; unit assumed
Procedure: as §1, §2, §3

For `CN(C)CC1COC2(CCN(c3nc4c(cc3F)c(=O)c(C(=O)O)cn4-c3ccc(F)cc3F)C2)O1` (stereo not drawn) [Example 445], the MIC values [1] was 3.1 µg/mL (≈ 6.15 µM), the MIC values (Escherichia coli JUHL) was 1.56 µg/mL (≈ 3.09 µM) and the MIC values (Escherichia coli KNK 437) was 12.5 µg/mL (≈ 24.8 µM). It also gave an MIC values [2] of 12.5 µg/mL (≈ 24.8 µM), an MIC values [3] of 12.5 µg/mL (≈ 24.8 µM) and an MIC values (Pseudomonas cepacia 2961) of 50 µg/mL (≈ 99.1 µM). It also gave an MIC values [4] of 0.39 µg/mL (≈ 0.773 µM), an MIC values [5] of 0.2 µg/mL (≈ 0.396 µM) and an MIC values [6] of 0.78 µg/mL (≈ 1.55 µM).
